Reference: article PMC7318222, “A Family of Water‐Immiscible, Dipolar Aprotic, Diamide Solvents from Succinic Acid” (Chemsuschem, 2020)
“Also recorded” adds a separate entry of the source.

Legend:
ERα = biological target: T1, ERα (Homo sapiens, UniProt P03372); experiment: ERα CALUX reporter gene assay; assay type: cell-based; set-up: key: –: no effect observed up to the highest test concentration; conditions: PC10, 24 h exposure
T1 construct: expression construct for the full-length human receptor under investigation; expressed in transfected cells; host or cells: human U2-OS cells (ATCC HTB-96), stably transfected
T1 sequence (P03372 1-595): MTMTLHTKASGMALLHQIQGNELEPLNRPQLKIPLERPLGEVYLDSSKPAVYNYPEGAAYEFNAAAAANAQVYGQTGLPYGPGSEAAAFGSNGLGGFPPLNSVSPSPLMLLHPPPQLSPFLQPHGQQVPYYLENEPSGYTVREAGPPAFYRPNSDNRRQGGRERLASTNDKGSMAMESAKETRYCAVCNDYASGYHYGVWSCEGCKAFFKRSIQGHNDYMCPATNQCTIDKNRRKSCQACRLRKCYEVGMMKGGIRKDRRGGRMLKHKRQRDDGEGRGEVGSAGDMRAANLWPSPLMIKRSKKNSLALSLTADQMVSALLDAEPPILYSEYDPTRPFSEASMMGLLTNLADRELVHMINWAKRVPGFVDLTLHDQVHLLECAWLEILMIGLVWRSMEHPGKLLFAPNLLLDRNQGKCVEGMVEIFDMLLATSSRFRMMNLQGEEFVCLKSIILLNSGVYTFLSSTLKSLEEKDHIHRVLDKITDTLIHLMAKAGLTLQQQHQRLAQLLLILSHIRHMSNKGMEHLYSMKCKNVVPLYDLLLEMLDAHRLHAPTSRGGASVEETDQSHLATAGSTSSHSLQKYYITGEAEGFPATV
Source text: Toluene ≥99.0%, hexane ≥99.5%,
DCM ≥99.5%, chloroform ≥99.5%, DMSO ≥99.0% were purchased from VWR. N,N-diethyl-4-nitroaniline ≥98.0% was purchased from Alfa Aeser. Cyrene was supplied by Circa group. N-butylpyrrolidinone was supplied by Eastman chemicals. N,N-dimethylformamide 99.9% and N,N-dimethylacetamide 99.9% were purchased from Fischer. The flakes of Ultrason® E3020 P Polyarylethersulfone of 55,000 Da were obtained from INGE.BASF, Germany. The CALUX cell lines have been described previously.[1] They are based on human U2-OS cells (ATCC, HTB-96) stably transfected with an expression construct for the full-length human receptor under investigation, and a reporter construct consisting of multimerized responsive elements for the cognate receptor coupled to a minimal promoter element (TATA) and a luciferase gene. Cells were maintained as described previously,[2] using cell culture media and supplements from Fisher Scientific as described in the experimental procedures section. […]
(§1) In vitro reporter gene assays
(§2) The automated CALUX assays were carried out similarly as described earlier,[12] with some adaptations. In brief, the assay was performed in CO2 independent medium (Fisher Scientific, […]
(§3) supplement (Fisher Scientific, 11574466), 10 U/mL penicillin and 10 µg/mL streptomycin. A cell suspension in assay medium was made of 1 × 10^5cells/mL, and white 384-wells plates were seeded with 30 µl cell suspension/well. After 24 h, exposure medium was prepared. A dilution series in 0.5log unit increments of each test compound (in DMSO) was added to a 96-wells plate containing assay medium (2% v/v). Of this exposure mixture, 30 µl was added to the assay plates containing the CALUX cells, resulting in a final DMSO concentration of 1%. Additionally, DMSO blanks and a full dose response curve of the relevant reference compound were included on each plate. All samples were tested in triplicate. The preparation of the compound dilution series as well as the exposure of the cells were performed on a Hamilton StarLET liquid handling robot coupled to a Cytomat incubator.
(§4) Directly after exposure, plates were sealed with non-breathing plate seals (Plate sealer, easy seal transparent; Greiner-Bio-One, 676001). After 24 h the exposure medium was removed using an EL406 washer-dispenser (BioTek) and 10 µl/well triton lysisbuffer was added by the EL406.
(§5) Subsequently, the luciferase signal was measured in a luminometer (InfinitePro coupled to a Connect Stacker, both TECAN). In order to be able to detect receptor antagonism, several assays were also performed in antagonistic mode. The assay procedure was as described above, with the only exception that the EC50 concentration of the reference agonist was present during the exposure.
(§6) The luminometer data was analysed as follows; the average of the triplicate wells was determined, and the average blank (DMSO) value was subtracted. For receptor-based assays the maximum response elicited by the reference compound was set to 100% (full receptor- or pathway activation), and the other values were scaled accordingly. […] For antagonist- and cytotoxicity experiments, PC20 values were determined instead, which was defined as the concentration where the test compound causes a 20% decrease in the basal signal, which was […]
(§7) curve, the signal induction above background (DMSO) was determined, and the concentration where the compound elicited a 1.5-fold increase above background was used as LEC.

p53 = p53 CALUX assay; assay type: cell-based, human; set-up: key: –: no effect observed up to the highest test concentration; conditions: cell signaling pathway assay, 24 h exposure
Source text: Six of the CALUX assays (TCF through p53) detect activation of several cellular signaling pathways, which are indicative of general stress and acute toxicity, but also a range of more specific types of toxicity, including reproductive toxicity. […]
DCM ≥99.5%, chloroform ≥99.5%, DMSO ≥99.0% were purchased from VWR. […]
Polyarylethersulfone of 55,000 Da were obtained from INGE.BASF, Germany. The CALUX cell lines have been described previously.[1] They are based on human U2-OS cells (ATCC, HTB-96) stably transfected with an expression construct for the full-length human receptor under investigation, and a reporter construct consisting of multimerized responsive elements for the cognate receptor coupled to a minimal promoter element (TATA) and a luciferase gene. Cells were maintained as described previously,[2] using cell culture media and supplements from Fisher Scientific as described in the experimental procedures section. […]
as §1, §2, §3, §4, §5
as §6, with “accordingly. GraphPad Prism was used to fit a sigmoidal curve through the data (four parameters, variable slope).” for “accordingly.”
as §7

Miscibility with water = assay type: physicochemical; conditions: this work

Row | Structure (SMILES) | LEC ERα (ERα) | Water misc. (Miscibility with water) | LEC p53 (p53)
1 | CCCCN(CC)C(=O)CCC(=O)N(CC)CCCC [EBSA, N,N′‐diethyl‐N,N′‐dibutylsuccindiamide] | – | no^[a] | –
2 | CCCCN(C)C(=O)CCC(=O)N(C)CCCC [MBSA, N,N′‐dimethyl‐N,N′‐dibutylsuccindiamide] | – | no^[a] | –

More lines, main results first:

Row | LEC ERα (ERα) | Water misc. (Miscibility with water) | Structure (SMILES) | LEC p53 (p53)
3 | – | miscible; also recorded: yes^[a] | CCCCN1CCCC1=O [NBP, N‐Butylpyrrolidinone, reference compound] | –
4 | – | yes^[a] | CN1CCCC1=O [NMP, N‐methyl‐2‐pyrrolidone, reference compound] | –
5 | – | no^[a] | CCCCN(CCCC)C(=O)CCC(=O)N(CCCC)CCCC [TBSA, N,N,N′,N′‐tetrabutylsuccindiamide] | –
